As a reminder, the EC50 is the concentration that produces a half-maximal response. A word on the IC50: it is the concentration that inhibits the measured activity by half. By melting point is commonly meant the temperature of the solid-liquid transition.

Consider six compounds from US7816523B2, “Potentiators of glutamate receptors” (Eli Lilly and Company, priority 2004, dated 2010).

For one data set, the target named is T1, human mGlu2 receptors (Homo sapiens, UniProt Q14416).
T1 construct: expressed in transfected cells; host or cells: RGT cells (co-transfected with the glutamate/aspartate transporter GLAST and stably transfected with Galpha15)
The data set can be described thus: Potentiation of glutamate-induced increase in intracellular calcium with a mGlu2 expressing cell line (FLIPR). In kind it is cell-based. The conditions noted are these: with submaximal glutamate-site agonist (e.g. 1 μM glutamate). The method, then:
Potentiation of Glutamate-Induced Increase in Intracellular Calcium with a mGlu2 Expressing Cell Line
Cell lines expressing human mGlu2 receptors are derived as previously described (Desai, Burnett, Mayne, Schoepp, Mol. Pharmacol. 48, 648-657, 1995) and cultured in DMEM with 5% dialyzed fetal bovine serum, 1 mM glutamine, 1 mM sodium pyruvate, 50 μg/mL Geneticin G418, and 0.2 mg/mL hygromycin B. Confluent cultures are passaged weekly. These cells are referred to as RGT cells for Rat Glutamate Transporter, and have been co-transfected with the glutamate/aspartate transporter GLAST. The RGT cell line expressing the mGlu2 receptors is stably transfected with the promiscuous G-protein, Galpha15 to change the signaling pathway to the mGlu2 receptor to one that could be easily measured through release of intracellular calcium. Thus, intracellular calcium levels are monitored before and after the addition of drugs on a Fluorometric Imaging Plate Reader (i.e. FLIPR, Molecular Devices). The following buffer is used throughout as an assay buffer: 10 mM KCl, 138 mM NaCl, 5 mM Ca Cl2, 1 mM MgCl2, 4 mM Na H2PO4, 10 mM Glucose, 10 mM HEPES, pH 7.4. Cells that had been plated 48 hours prior at a density of 30-40,000 cells per well in a 96-well plate are loaded with a calcium-sensitive dye for 90 minutes at 25° C. Fluo-3 (2 mM in DMSO, Molecular Probes) are mixed with a equal volume of 10% pluronic acid in DMSO, and diluted to 8 μM into the buffer described above containing 10% fetal bovine serum to make the loading buffer. Following loading of the cells, the loading buffer is removed and replaced with assay buffer prior to drug addition and monitoring on the FLIPR. The resulting signal from the addition of compounds of formula (I) and submaximal concentrations of a glutamate-site agonist (e.g. 1 μM glutamate) is determined by taking the difference of the maximal fluorescent peak height minus the background fluorescence in each well and expressing the results as a percent of the signal seen with a maximal glutamate response (30 μM glutamate, typically about 30-50,000 Relative Fluorescent Units). Least squares curve fitting with a four-parameter equation is then applied to the resulting dose-% response curve to determine the resulting EC50 values.
On the technique in general: Calcium flux is commonly read through the fluorescence of an indicator in the cells.

In another data set the target is T2, human CysLT1 receptor (Homo sapiens, UniProt Q9Y271).
T2 construct: expressed in transfected cells; host or cells: AV12-664 (ATCC-9595)
T2 sequence (Q9Y271 1-337): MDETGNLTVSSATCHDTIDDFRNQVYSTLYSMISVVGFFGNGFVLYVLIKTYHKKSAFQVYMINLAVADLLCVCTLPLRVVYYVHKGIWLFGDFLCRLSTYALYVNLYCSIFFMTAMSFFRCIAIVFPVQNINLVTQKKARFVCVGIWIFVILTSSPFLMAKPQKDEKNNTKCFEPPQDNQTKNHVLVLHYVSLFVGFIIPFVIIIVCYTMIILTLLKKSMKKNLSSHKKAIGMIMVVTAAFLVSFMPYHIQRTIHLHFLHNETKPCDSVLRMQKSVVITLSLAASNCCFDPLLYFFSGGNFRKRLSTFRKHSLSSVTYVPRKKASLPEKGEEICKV
Briefly: Antagonism of LTD4-induced increase in intracellular calcium within a CysLT1 receptor expressing cell line (FLIPR). It is filed as cell-based. As to conditions: 6 nM LTD4; read-out: antagonism of CysLT1 receptors, IC50. As to the method:
Antagonism of Cysteinyl-leukotriene D4 (LTD4) -Induced Increase in Intracellular Calcium within a Cysteinyl-Leukotriene 1 (CysLT1) Receptor Expressing Cell Line
Cell lines expressing the human CysLT1 receptor [AV12-664 (ATCC-9595)] are derived and maintained in culture media: DMEM with 5% dialyzed fetal bovine serum, 1 mM glutamine, and 1 mM sodium pyruvate. Confluent cultures are passaged weekly. Intracellular calcium levels are monitored in the CysLT1-expressing cells with the addition of LTD4, with or without prior exposure to the compounds being tested as antagonists with a Fluorometric Imaging Plate Reader (FLIPR, Molecular Devices). The following buffer is used throughout as an assay buffer: Hanks Buffered Saline Solution without phenol red (GIBCO), with 10 mM HEPES pH 7.4. Cells that had been plated 48 hours prior at a density of 20-25,000 cells per well in a 96-well plate are loaded with a calcium-sensitive dye for 90 minutes at 25° C. Fluo-3 (2 mM in DMSO, Molecular Probes) is mixed with an equal volume of 10% pluronic acid in DMSO, and diluted to 8 μM in the buffer described above containing 10% fetal bovine serum to make the loading buffer. Following loading of the cells, the buffer is removed and replaced with assay buffer prior to drug addition and monitoring on the FLIPR for several minutes. The resulting signal from the addition of 6 nM LTD4 (provides approximately 90% of the maximal signal with 25 nM LTD4) is determined by taking the difference of the maximal fluorescent peak height minus the background fluorescence in each well and expressing the results as a percent of the signal seen without pretreatment of the test compound(s). Least squares curve fitting with a four-parameter equation is applied to the resulting dose-% inhibition curve to determine the resulting IC50 values.

T1 sequence (Q14416 19-872): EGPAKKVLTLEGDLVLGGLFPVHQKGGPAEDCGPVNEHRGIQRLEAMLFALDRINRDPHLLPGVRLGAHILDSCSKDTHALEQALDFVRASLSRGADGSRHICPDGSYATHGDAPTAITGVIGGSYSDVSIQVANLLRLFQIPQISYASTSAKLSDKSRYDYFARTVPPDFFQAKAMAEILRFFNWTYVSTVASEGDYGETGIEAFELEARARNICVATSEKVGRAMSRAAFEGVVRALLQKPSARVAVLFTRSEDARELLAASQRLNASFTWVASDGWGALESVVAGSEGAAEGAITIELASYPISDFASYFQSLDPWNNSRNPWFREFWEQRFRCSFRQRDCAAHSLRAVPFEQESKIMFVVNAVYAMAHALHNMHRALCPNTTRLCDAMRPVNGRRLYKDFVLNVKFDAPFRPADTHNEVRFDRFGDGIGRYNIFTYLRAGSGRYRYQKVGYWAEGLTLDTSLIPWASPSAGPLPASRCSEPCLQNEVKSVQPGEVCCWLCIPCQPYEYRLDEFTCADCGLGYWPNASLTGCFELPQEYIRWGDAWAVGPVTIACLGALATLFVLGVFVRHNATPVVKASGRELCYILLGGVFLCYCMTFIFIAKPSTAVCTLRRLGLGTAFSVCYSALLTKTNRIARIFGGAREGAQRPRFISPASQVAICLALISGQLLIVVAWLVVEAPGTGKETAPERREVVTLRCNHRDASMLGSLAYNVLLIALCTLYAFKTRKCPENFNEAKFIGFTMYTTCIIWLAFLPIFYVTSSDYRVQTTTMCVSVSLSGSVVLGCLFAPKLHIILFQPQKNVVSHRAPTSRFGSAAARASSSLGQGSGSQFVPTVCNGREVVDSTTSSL

Regarding `CCCc1c(OCc2ccc(C(F)c3cccc(-c4nnn[nH]4)c3)cc2)ccc(C(C)=O)c1O` (single isomer, unassigned; isomer 1) [Example 81, 1-[4-(4-{Fluoro-[3-(1H-tetrazol-5-yl)-phenyl]-methyl}-benzyloxy)-2-hydroxy-3-propyl-phenyl]-ethanone isomer 1], on human mGlu2 receptors, the EC50 was less than 100 nM. Moreover, the IC50 at human CysLT1 receptor was less than 750 nM.

`CCCc1c(OCc2ccc(C(O)c3cccc(C(=O)O)c3)cc2)ccc(C(C)=O)c1O` (single isomer, unassigned; isomer 1) [Example 83, (+)-3-{[4-(4-Acetyl-3-hydroxy-2-propyl-phenoxymethyl)-phenyl]-hydroxy-methyl}-benzoic acid isomer 1]: the EC50 at human mGlu2 receptors is less than 100 nM. At human CysLT1 receptor, the IC50 was less than 750 nM.

For `CCCc1c(OCc2ccc(C(O)c3ccc(OC)c(-c4nnn[nH]4)c3)cc2)ccc(C(C)=O)c1O` (stereo not shown) [Example 47, 1-[2-hydroxy-4-(4-{hydroxy-[4-methoxy-3-(2H-tetrazol-5-yl)-phenyl]-methyl}-benzyloxy)-3-propyl-phenyl]-ethanone], the EC50 on human mGlu2 receptors is less than 100 nM. In addition, the IC50 at human CysLT1 receptor was less than 750 nM.

In the case of `CCCc1c(OCc2ccc(Cc3cccc(-c4nn[nH]n4)c3)cc2)ccc(C(C)=O)c1O` [Example 60, 1-(2-hydroxy-3-propyl-4-{4-[3-(1H-tetrazol-5-yl)-benzyl]-benzyloxy}-phenyl)-ethanone], at human CysLT1 receptor, the IC50 is less than 750 nM.

Take `CC(=O)c1ccc(OCc2ccc(Cc3cccc(C(=O)O)c3)cc2)c(Cl)c1O` [Example 65, 3-[4-(4-Acetyl-2-chloro-3-hydroxy-phenoxymethyl)-benzyl]-benzoic acid]: the EC50 on human mGlu2 receptors was less than 100 nM. For the same compound, the IC50 at human CysLT1 receptor is less than 750 nM.

For the compound `CCCc1c(OCc2ccc([C@H](O)c3cccc(C(=O)O)c3)cc2)ccc(C(C)=O)c1O` [Example 155, 3-{[4-(4-acetyl-3-hydroxy-2-propyl-phenoxymethyl)-phenyl]-(S)-hydroxymethyl}-benzoic acid], the melting point came to 198.35 °C.
